Measurements: ChEMBL document CHEMBL1156526, “Specificity and mechanism of action of EHT 1864, a novel small molecule inhibitor of Rac family small GTPases” (2007)
Activity calls are given as the source filed them.

Columns and labels:
[1] = test system: NIH3T3; test: Effect on interaction between Rac1 15A mutant and human Tiam1 C1199 mutant expressed in NIH3T3 cells by Western blot analysis; type: cell-based
[2] = test system: NIH3T3; test: Inhibition on Tiam1 C1199 mutant-induced focus forming activity in mouse NIH3T3 cells at 5 uM; type: cell-based
[3] = test system: NIH3T3; test: Inhibition of Rac1 61L mutant-induced cellular transformation in mouse NIH3T3 cells at 5 uM after 3 to 5 weeks; type: cell-based
[4] = biological target: Ras-related C3 botulinum toxin substrate 2 (Homo sapiens) (UniProt P15153); test: Binding affinity at Rac2 at 1 uM by fluorescence anisotropy
[5] = biological target: Cell division control protein 42 homolog (Homo sapiens) (UniProt P60953); test: Inhibition of platelet derived growth factor-induced endogenous association of Cdc42 with GST-PAK-RBD in human U87MG cells after 5 mins by Western blot analysis; type: cell-based; settings: U-87MG ATCC
Sequence of Cell division control protein 42 homolog (Homo sapiens) (P60953 whole entry, looked up): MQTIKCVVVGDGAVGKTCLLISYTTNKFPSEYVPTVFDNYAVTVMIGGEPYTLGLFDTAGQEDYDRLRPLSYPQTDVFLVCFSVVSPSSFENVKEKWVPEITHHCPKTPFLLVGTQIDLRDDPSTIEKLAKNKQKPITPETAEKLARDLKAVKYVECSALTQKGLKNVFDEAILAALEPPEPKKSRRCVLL

[6] = test system: NIH3T3; test: Inhibition of H-Ras 61L mutant-induced focus formation in mouse NIH3T3 cells at 5 uM after 14 days; type: cell-based
[7] = test system: NIH3T3; test: Inhibition of platelet derived growth factor-induced lamellipodia formation in mouse NIH3T3 cells at 5 uM; type: functional
[8] = test system: NIH3T3; test: Inhibition on Rac1 61L […]-induced focus forming activity in mouse NIH3T3 cells at 5 uM; type: cell-based
[9] = test system: 293T; test: Effect on interaction between Rac1 15A mutant and human Tiam1 C1199 mutant expressed in 293T cells by Western blot analysis; type: cell-based
[10] = biological target: Ras-related C3 botulinum toxin substrate 1 (Mus musculus) (UniProt P63001); test: Effect on Rac1 binding to RhoGDI1 in mouse NIH3T3 cells by Western blot analysis; type: cell-based
[11] = biological target: Cell division control protein 42 homolog (Homo sapiens) (UniProt P60953); test: Inhibition of Cdc42-PAK-RBD complex formation in platelet derived growth factor-induced human U87MG cells at 50 uM by fluorescence anisotropy; type: cell-based; settings: U-87MG ATCC
[12] = biological target: Ras-related C3 botulinum toxin substrate 3 (Homo sapiens) (UniProt P60763); test: Binding affinity at Rac3 at 1 uM by fluorescence anisotropy
[13] = test system: NIH3T3; test: Inhibition of Ras-induced cell growth in H-Ras 61L expressing mouse NIH3T3 cells at 5 uM by MTT assay; type: cell-based
[14] = test system: NIH3T3; test: Inhibition of bradykinin-induced filopodia formation in mouse NIH3T3 cells at 5 uM; type: functional, cell-based
[15] = test system: NIH3T3; test: Inhibition of lysophosphatidic acid-induced actin stress fibers formation in mouse NIH3T3 cells at 5 uM; type: functional, cell-based
[16] = test system: U-87 MG; test: Reduction of RhoA-GTPase level in platelet derived growth factor-induced human U87MG cells measured with GST-rhotekin-RBD by pulldown assay; type: functional, cell-based; settings: U-87MG ATCC
[17] = biological target: Cell division control protein 42 homolog (Homo sapiens) (UniProt P60953); test: Binding affinity at Cdc42 at 1 uM by fluorescence anisotropy
[18] = biological target: Ras-related C3 botulinum toxin substrate 1 (Mus musculus) (UniProt P63001); test: Effect on Rac1 binding to RhoGDI2 in mouse NIH3T3 cells by Western blot analysis; type: cell-based
[19] = test system: NIH3T3; test: Inhibition on Rac1 61L-induced focus forming activity in mouse NIH3T3 cells at 5 uM; type: cell-based
[20] = test system: U-87 MG; test: Reduction of RhoA-GTPase level in platelet derived growth factor-induced human U87MG cells measured with GST-PAK-RBD by pulldown assay; type: functional, cell-based; settings: U-87MG ATCC
[21] = test system: U-87 MG; test: Reduction of Rac1-GTPase level in platelet derived growth factor-induced human U87MG cells measured with GST-PAK-RBD by pulldown assay; type: functional, cell-based; settings: U-87MG ATCC
[22] = test system: U-87 MG; test: Reduction of Cdc42-GTPase level in platelet derived growth factor-induced human U87MG cells measured with GST-PAK-RBD by pulldown assay; type: functional, cell-based; settings: U-87MG ATCC
[23] = test system: U-87 MG; test: Reduction of Rac1-GTPase level in platelet derived growth factor-induced human U87MG cells measured with GST-rhotekin-RBD by pulldown assay; type: functional, cell-based; settings: U-87MG ATCC
[24] = test system: U-87 MG; test: Reduction of Cdc42-GTPase level in platelet derived growth factor-induced human U87MG cells measured with GST-rhotekin-RBD by pulldown assay; type: functional, cell-based; settings: U-87MG ATCC

O=c1cc(CN2CCOCC2)occ1OCCCCCSc1ccnc2cc(C(F)(F)F)ccc12
80%: inhibition at 5 µM [7] | inhibition [19]
inactive: Activity [1] | Activity [5] | Activity [6] | Activity [8] | Activity [9] | Activity [11] | Activity [17]
active: Activity [2] | Activity [3] | Activity [4] | Activity [10] | Activity [12] | Activity [13] | Activity [14] | Activity [15] | Activity [16] | Activity [18]

CCN(CC)CCCC(C)Nc1nc(C)cc(Nc2ccc3nc(C)cc(N)c3c2)n1 (stereo unspecified)
inactive: Activity [3]

O=c1cc(CN2CCNCC2)occ1OCCCCCSc1ccnc2cc(C(F)(F)F)ccc12
inactive: Activity [20] | Activity [21] | Activity [22] | Activity [23] | Activity [24] | Activity [16]
